The record followed here is US20230257396A1, “MACROCYCLES AND THEIR USE” (BLOSSOMHILL THERAPEUTICS, INC., priority 2020, published 2023).

Molecules are shown by their SMILES. Where a chain is given by its changes, count along the chain named.

Holding throughout (experiment): KINOMEscan kinase binding assay (Eurofins/DiscoveRx), % Ctrl
What all share (conditions): 1 μM

Experiment [1] concerns the target T1, kinases (Homo sapiens, UniProt P10721, D816V).
T1 construct: purchased Eurofins/DiscoveRx; host or cells: E. coli BL21-derived host (T7 phage display) for most kinases; HEK-293 for the rest
Summed up: (§1)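 Competition binding, 1 h RT: phage-tagged or HEK-293-expressed DNA-tagged kinase + immobilized ligand + compound. Eluate kinase by qPCR. % Ctrl = (test − positive ctrl)/(negative ctrl − positive ctrl) × 100; lower means stronger binding.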

Experiment [2] concerns the target T2, kinases (Homo sapiens, UniProt P36888, R834Q).
T2 construct: purchased Eurofins/DiscoveRx; host or cells: E. coli BL21-derived host (T7 phage display) for most kinases; HEK-293 for the rest
T2 sequence (P36888 27-993 R834Q): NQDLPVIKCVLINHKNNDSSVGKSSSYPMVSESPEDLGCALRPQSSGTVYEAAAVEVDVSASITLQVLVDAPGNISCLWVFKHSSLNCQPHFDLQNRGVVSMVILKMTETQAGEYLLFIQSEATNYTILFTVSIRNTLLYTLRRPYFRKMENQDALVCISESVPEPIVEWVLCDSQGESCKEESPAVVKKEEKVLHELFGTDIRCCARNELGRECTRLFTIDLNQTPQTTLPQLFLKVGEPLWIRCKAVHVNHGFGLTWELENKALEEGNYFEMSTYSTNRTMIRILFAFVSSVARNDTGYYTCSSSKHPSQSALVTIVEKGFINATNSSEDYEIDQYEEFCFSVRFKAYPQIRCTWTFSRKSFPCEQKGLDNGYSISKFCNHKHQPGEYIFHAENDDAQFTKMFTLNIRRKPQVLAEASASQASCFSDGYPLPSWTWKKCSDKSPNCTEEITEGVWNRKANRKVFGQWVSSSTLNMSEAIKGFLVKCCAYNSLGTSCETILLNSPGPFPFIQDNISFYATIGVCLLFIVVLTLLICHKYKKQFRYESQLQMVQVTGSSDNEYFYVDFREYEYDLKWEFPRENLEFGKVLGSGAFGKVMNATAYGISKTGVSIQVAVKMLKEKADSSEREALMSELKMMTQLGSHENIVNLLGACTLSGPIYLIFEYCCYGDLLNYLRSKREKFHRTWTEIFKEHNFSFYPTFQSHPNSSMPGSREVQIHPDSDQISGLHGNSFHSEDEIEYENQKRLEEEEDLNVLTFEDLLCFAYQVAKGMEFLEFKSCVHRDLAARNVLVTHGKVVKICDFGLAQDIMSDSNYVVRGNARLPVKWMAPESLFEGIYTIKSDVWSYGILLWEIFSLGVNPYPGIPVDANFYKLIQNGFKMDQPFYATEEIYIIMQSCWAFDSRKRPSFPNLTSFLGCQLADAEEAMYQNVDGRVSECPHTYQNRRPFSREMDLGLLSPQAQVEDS
The procedure, abridged: as §1

Experiment [3] concerns the target T3, kinases (Homo sapiens, UniProt P00519, H396P).
T3 construct: purchased Eurofins/DiscoveRx; host or cells: E. coli BL21-derived host (T7 phage display) for most kinases; HEK-293 for the rest
Summed up:
as §1

Experiment [4] has as its target T4, kinases (Homo sapiens, UniProt P00533, DEL746-750).
T4 construct: purchased Eurofins/DiscoveRx; host or cells: E. coli BL21-derived host (T7 phage display) for most kinases; HEK-293 for the rest
Summed up: as §1

The target of experiment [5] is T5, kinases (Homo sapiens, UniProt P36888, D835H).
T5 construct: purchased Eurofins/DiscoveRx; host or cells: E. coli BL21-derived host (T7 phage display) for most kinases; HEK-293 for the rest
T5 sequence (P36888 27-993 D835H): T2 sequence (P36888 27-993 R834Q) with Q808R, D809H
The procedure, abridged: as §1

T1 sequence (P10721 26-976 D816V): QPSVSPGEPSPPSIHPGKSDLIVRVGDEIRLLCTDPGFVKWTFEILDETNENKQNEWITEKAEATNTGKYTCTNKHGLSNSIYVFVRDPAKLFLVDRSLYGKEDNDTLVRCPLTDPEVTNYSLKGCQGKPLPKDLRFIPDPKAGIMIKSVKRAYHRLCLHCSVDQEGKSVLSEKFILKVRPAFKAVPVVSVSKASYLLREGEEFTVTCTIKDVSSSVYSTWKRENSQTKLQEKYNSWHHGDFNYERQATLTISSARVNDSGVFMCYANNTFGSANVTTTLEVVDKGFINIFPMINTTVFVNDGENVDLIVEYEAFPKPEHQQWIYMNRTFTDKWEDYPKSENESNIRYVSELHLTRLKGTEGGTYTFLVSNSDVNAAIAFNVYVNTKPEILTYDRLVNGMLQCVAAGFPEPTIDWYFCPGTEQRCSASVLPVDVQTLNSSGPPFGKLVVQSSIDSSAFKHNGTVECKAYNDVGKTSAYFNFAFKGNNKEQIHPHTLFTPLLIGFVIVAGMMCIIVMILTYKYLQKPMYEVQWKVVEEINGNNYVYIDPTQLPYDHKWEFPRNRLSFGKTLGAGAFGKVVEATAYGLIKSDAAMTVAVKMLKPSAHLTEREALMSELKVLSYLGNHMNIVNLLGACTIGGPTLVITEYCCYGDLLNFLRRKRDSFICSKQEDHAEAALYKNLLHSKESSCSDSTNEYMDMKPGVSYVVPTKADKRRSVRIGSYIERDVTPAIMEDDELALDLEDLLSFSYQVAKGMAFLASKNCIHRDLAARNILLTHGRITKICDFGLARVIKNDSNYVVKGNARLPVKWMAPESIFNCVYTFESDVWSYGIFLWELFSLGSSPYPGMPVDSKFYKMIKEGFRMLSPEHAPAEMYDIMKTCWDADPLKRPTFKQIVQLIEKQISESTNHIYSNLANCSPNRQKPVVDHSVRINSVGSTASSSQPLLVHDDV

As to `Cc1cc2c([nH]1)/C=C1\C(=O)Nc3ccc(nc31)-c1ccccc1OCCCNC2=O` [Ex.22, [3a(4)Z]-6-methyl-9,10,11,12-tetrahydro-1,18-(ethanediylidene)dipyrrolo[3,2-g:3′,4′-j][1,5,12]benzoxadiazacyclopentadecine-3,8(2H,5H)-dione], in experiment [1] (KIT(D816V)), the “% Ctrl, KIT(D816V)” value was 96 % Ctrl. In addition, the “% Ctrl, FLT3(R834Q)” value in experiment [2] (FLT3(R834Q)) stood at 97 % Ctrl. Also, the “% Ctrl, ABL1(H396P)-nonphosphorylated” value in experiment [3] (ABL1(H396P)-nonphosphorylated) is given as 90 % Ctrl. Also, the “% Ctrl, ABL1(H396P)-phosphorylated” value in experiment [3] (ABL1(H396P)-phosphorylated) was 77 % Ctrl. The “% Ctrl, EGFR(E746-A750del)” value in experiment [4] (EGFR(E746-A750del)) is reported as 97 % Ctrl. Further, the “% Ctrl, FLT3(D835H)” value in experiment [5] (FLT3(D835H)) turned out to be 89 % Ctrl.
As to `Cc1cc2c([nH]1)/C=C1\C(=O)Nc3ccc(cc31)-c1ccnn1CCOCCNC2=O` [Ex.39, [19a(20)Z]-2-methyl-6,7,9,10-tetrahydro-1H-15,17-(ethanediylidene)pyrazolo[1,5-d]dipyrrolo[3,4-h:2′,3′-k][1,4,14]oxadiazacyclohexadecine-4,19(5H,18H)-dione], the “% Ctrl, KIT(D816V)” value in experiment [1] (KIT(D816V)) came out at 91 % Ctrl. The “% Ctrl, FLT3(R834Q)” value in experiment [2] (FLT3(R834Q)) was 93 % Ctrl. Moreover, the “% Ctrl, ABL1(H396P)-nonphosphorylated” value in experiment [3] (ABL1(H396P)-nonphosphorylated) was determined as 74 % Ctrl. Further, the “% Ctrl, ABL1(H396P)-phosphorylated” value in experiment [3] (ABL1(H396P)-phosphorylated) amounted to 82 % Ctrl. In addition, in experiment [4] (EGFR(E746-A750del)), the “% Ctrl, EGFR(E746-A750del)” value is 69 % Ctrl. For the same compound, the “% Ctrl, FLT3(D835H)” value in experiment [5] (FLT3(D835H)) was found to be 85 % Ctrl.
Consider `Cc1cc2c([nH]1)/C=C1\C(=O)Nc3cnc(nc31)N(C)CCCOCCN(C)C2=O` [Ex.71, [17a(18)Z]-2,5,12-trimethyl-6,7,9,10,11,12-hexahydro-1H-13,15-(azenometheno)dipyrrolo[3,2-f:3′,4′-i][1,4,11,13]oxatriazacyclohexadecine-4,17(5H,16H)-dione], for which the “% Ctrl, KIT(D816V)” value in experiment [1] (KIT(D816V)) is listed as 100 % Ctrl. Further, the “% Ctrl, FLT3(R834Q)” value in experiment [2] (FLT3(R834Q)) stood at 100 % Ctrl. The “% Ctrl, ABL1(H396P)-nonphosphorylated” value in experiment [3] (ABL1(H396P)-nonphosphorylated) was 100 % Ctrl. Besides, in experiment [3] (ABL1(H396P)-phosphorylated), the “% Ctrl, ABL1(H396P)-phosphorylated” value was 98 % Ctrl. In addition, the “% Ctrl, EGFR(E746-A750del)” value in experiment [4] (EGFR(E746-A750del)) amounted to 100 % Ctrl. The “% Ctrl, FLT3(D835H)” value in experiment [5] (FLT3(D835H)) was found to be 99 % Ctrl.
Consider `Cc1cc2c([nH]1)/C=C1\C(=O)Nc3ccc(cc31)OCCOCCN(C)C2=O` [Ex.91, [16a(17)Z]-2,5-dimethyl-6,7,9,10-tetrahydro-1H-12,14-(ethanediylidene)dipyrrolo[3,2-i:3′,4′-l][1,4,7]dioxazacyclopentadecine-4,16(5H,15H)-dione], for which the “% Ctrl, KIT(D816V)” value in experiment [1] (KIT(D816V)) turned out to be 20 % Ctrl. Further, in experiment [2] (FLT3(R834Q)), the “% Ctrl, FLT3(R834Q)” value was 29 % Ctrl. The “% Ctrl, ABL1(H396P)-nonphosphorylated” value in experiment [3] (ABL1(H396P)-nonphosphorylated) came to 0.55 % Ctrl. Moreover, in experiment [3] (ABL1(H396P)-phosphorylated), the “% Ctrl, ABL1(H396P)-phosphorylated” value was found to be 15 % Ctrl. Further, the “% Ctrl, EGFR(E746-A750del)” value in experiment [4] (EGFR(E746-A750del)) came to 93 % Ctrl. The “% Ctrl, FLT3(D835H)” value in experiment [5] (FLT3(D835H)) turned out to be 1.2 % Ctrl.
Regarding `Cc1cc2c([nH]1)/C=C1\C(=O)Nc3ccc(cc31)CN(C)C(=O)COCCNC2=O` [Ex.111, [17a(18)Z]-2,11-dimethyl-6,7,11,12-tetrahydro-1H-13,15-(ethanediylidene)dipyrrolo[3,2-f:3′,4′-i][1,4,14]oxadiazacyclohexadecine-4,10,17(5H,9H,16H)-trione], in experiment [1] (KIT(D816V)), the “% Ctrl, KIT(D816V)” value is 76 % Ctrl. In addition, in experiment [2] (FLT3(R834Q)), the “% Ctrl, FLT3(R834Q)” value amounted to 39 % Ctrl. In addition, the “% Ctrl, ABL1(H396P)-nonphosphorylated” value in experiment [3] (ABL1(H396P)-nonphosphorylated) is 62 % Ctrl. The “% Ctrl, ABL1(H396P)-phosphorylated” value in experiment [3] (ABL1(H396P)-phosphorylated) stood at 61 % Ctrl. For the same compound, the “% Ctrl, EGFR(E746-A750del)” value in experiment [4] (EGFR(E746-A750del)) was 92 % Ctrl. The “% Ctrl, FLT3(D835H)” value in experiment [5] (FLT3(D835H)) came out at 20 % Ctrl.
For `Cc1cc2c([nH]1)/C=C1\C(=O)Nc3cnc(cc31)-c1cnn(C)c1COCCNC2=O` [Ex.123, [3a(4)Z]-6,14-dimethyl-10,11,13,14-tetrahydro-2H-17,1-(azenometheno)pyrazolo[4,3-m]dipyrrolo[3,2-f:3′,4′-i][1,4]oxazacyclopentadecine-3,8(5H,9H)-dione], in experiment [1] (KIT(D816V)), the “% Ctrl, KIT(D816V)” value was 100 % Ctrl. In addition, the “% Ctrl, FLT3(R834Q)” value in experiment [2] (FLT3(R834Q)) came to 100 % Ctrl. The “% Ctrl, ABL1(H396P)-nonphosphorylated” value in experiment [3] (ABL1(H396P)-nonphosphorylated) stood at 100 % Ctrl. Also, the “% Ctrl, ABL1(H396P)-phosphorylated” value in experiment [3] (ABL1(H396P)-phosphorylated) is given as 100 % Ctrl. Moreover, the “% Ctrl, EGFR(E746-A750del)” value in experiment [4] (EGFR(E746-A750del)) worked out at 100 % Ctrl. The “% Ctrl, FLT3(D835H)” value in experiment [5] (FLT3(D835H)) was 88 % Ctrl.
As for `Cc1cc2c([nH]1)/C=C1\C(=O)Nc3ccc(cc31)-c1ccnn1CCOCCN(C)C2=O` [Ex. 41, [19a(20)Z]-2,5-dimethyl-6,7,9,10-tetrahydro-1H-15,17-(ethanediylidene)pyrazolo[1,5-d]dipyrrolo[3,4-h:2′,3′-k][1,4,14]oxadiazacyclohexadecine-4,19(5H,18H)-dione], in experiment [1] (KIT(D816V)), the “% Ctrl, KIT(D816V)” value is 38 % Ctrl. Besides, the “% Ctrl, FLT3(R834Q)” value in experiment [2] (FLT3(R834Q)) is recorded as 15 % Ctrl. In addition, in experiment [3] (ABL1(H396P)-nonphosphorylated), the “% Ctrl, ABL1(H396P)-nonphosphorylated” value amounted to 6.1 % Ctrl. In addition, the “% Ctrl, ABL1(H396P)-phosphorylated” value in experiment [3] (ABL1(H396P)-phosphorylated) is listed as 5 % Ctrl. In addition, the “% Ctrl, EGFR(E746-A750del)” value in experiment [4] (EGFR(E746-A750del)) is 36 % Ctrl. Moreover, in experiment [5] (FLT3(D835H)), the “% Ctrl, FLT3(D835H)” value was determined as 5.2 % Ctrl.
Regarding `Cc1cc2c([nH]1)/C=C1\C(=O)Nc3ccc(cc31)-c1ccnn1CCNCCNC2=O` [Ex. 43, [19a(20)Z]-2-methyl-5,6,7,8,9,10-hexahydro-15,17-(ethanediylidene)pyrazolo[1,5-g]dipyrrolo[3,4-k:2′,3′-n][1,4,7]triazacyclohexadecine-4,19(1H,18H)-dione], the “% Ctrl, KIT(D816V)” value in experiment [1] (KIT(D816V)) came to 96 % Ctrl. Moreover, the “% Ctrl, FLT3(R834Q)” value in experiment [2] (FLT3(R834Q)) is given as 85 % Ctrl. In experiment [3] (ABL1(H396P)-nonphosphorylated), the “% Ctrl, ABL1(H396P)-nonphosphorylated” value came to 64 % Ctrl. Further, the “% Ctrl, ABL1(H396P)-phosphorylated” value in experiment [3] (ABL1(H396P)-phosphorylated) was 89 % Ctrl. In addition, the “% Ctrl, EGFR(E746-A750del)” value in experiment [4] (EGFR(E746-A750del)) is 69 % Ctrl. Also, the “% Ctrl, FLT3(D835H)” value in experiment [5] (FLT3(D835H)) is listed as 93 % Ctrl.
As to `Cc1cc2c([nH]1)/C=C1\C(=O)Nc3cnc(cc31)-c1cn[nH]c1CNCCN(C)C2=O` [Ex. 55, [3a(4)Z]-6,9-dimethyl-9,10,11,12,13,14-hexahydro-17,1-(azenometheno)pyrazolo[4,3-m]dipyrrolo[3,2-f:3′,4′-i][1,4]diazacyclopentadecine-3,8(2,5H)-dione], in experiment [1] (target KIT(D816V)), the “% Ctrl, KIT(D816V)” value came to 1.3 % Ctrl. The “% Ctrl, FLT3(R834Q)” value in experiment [2] (target FLT3(R834Q)) stood at 25 % Ctrl. The “% Ctrl, ABL1(H396P)-nonphosphorylated” value in experiment [3] (target ABL1(H396P)-nonphosphorylated) turned out to be 0.8 % Ctrl. The “% Ctrl, ABL1(H396P)-phosphorylated” value in experiment [3] (target ABL1(H396P)-phosphorylated) came out at 3.6 % Ctrl. Further, in experiment [4] (target EGFR(E746-A750del)), the “% Ctrl, EGFR(E746-A750del)” value was determined as 74 % Ctrl. The “% Ctrl, FLT3(D835H)” value in experiment [5] (target FLT3(D835H)) is 2.7 % Ctrl.
